Data: patent publication US20220324835A1 (Nurix Therapeutics, Inc., priority 2018, published 2022)
pIC50: −log10 of the molar value.

How the values were obtained:
T-cell [1] = assay: CD25 cell surface staining on T-cells co-stimulated with anti-CD3 and anti-CD28 antibody (Biological Example 2); format: cell-based, human; conditions: Homo sapiens, T-cell, primary human total T-cells, baseline = anti-CD3/anti-CD28 stimulated cells without inhibitor, read-out: CD25 staining, Anti-CD3/Anti-CD28 stimulation, fold change over baseline; for fold induction at 0.3 µM: 0.3 μM compound; for fold induction at 1 µM: 1 μM compound; for fold induction at 4 µM: 4 μM compound
Outline: (§1)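 Values are fold-change over baseline: readings (IL-2 release, CD25 staining) from inhibitor-treated T-cells divided against untreated cells […]. No detailed procedure stated.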

T-cell [2] = assay: CD25 cell surface staining on T-cells stimulated with anti-CD3 antibody alone (Biological Example 2); format: cell-based; conditions: primary human total T-cells, baseline = anti-CD3/anti-CD28 stimulated cells without inhibitor, read-out: CD25 staining, Anti-CD3 stimulation, fold change over baseline; for fold induction at 1 µM: 1 μM compound; for fold induction at 8 µM: 8 μM compound
T-cell [3] = assay: IL-2 secretion from T-cells stimulated with anti-CD3 antibody alone (Biological Example 2); format: cell-based; conditions: primary human total T-cells, read-out: IL-2 secretion, Anti-CD3 stimulation, fold change over baseline; for fold induction at 1 µM: 1 μM compound; for fold induction at 8 µM: 8 μM compound
T-cell [4] = assay: IL-2 secretion from T-cells co-stimulated with anti-CD3 and anti-CD28 antibody (Biological Example 2); format: cell-based, human; conditions: Homo sapiens, T-cell, primary human total T-cells, baseline = anti-CD3/anti-CD28 stimulated cells without inhibitor, read-out: IL-2 secretion, Anti-CD3/Anti-CD28 stimulation, fold change over baseline; for fold induction at 0.3 µM: 0.3 μM compound; for fold induction at 1 µM: 1 μM compound; for fold induction at 4 µM: 4 μM compound
Outline: as §1

Cbl-b [5] = molecular target: T1, Cbl-b (Homo sapiens, UniProt Q13191); assay: Cbl-b activity assay (Cbl-b inhibition assay), TR-FRET of Cbl-b interaction with UbcH5B-Ub; format: biochemical; conditions: assay buffer with 100 mM NaCl, 60 nM Src kinase; read-out: Cbl-b activity IC50
T1 sequence (Q13191 36-427): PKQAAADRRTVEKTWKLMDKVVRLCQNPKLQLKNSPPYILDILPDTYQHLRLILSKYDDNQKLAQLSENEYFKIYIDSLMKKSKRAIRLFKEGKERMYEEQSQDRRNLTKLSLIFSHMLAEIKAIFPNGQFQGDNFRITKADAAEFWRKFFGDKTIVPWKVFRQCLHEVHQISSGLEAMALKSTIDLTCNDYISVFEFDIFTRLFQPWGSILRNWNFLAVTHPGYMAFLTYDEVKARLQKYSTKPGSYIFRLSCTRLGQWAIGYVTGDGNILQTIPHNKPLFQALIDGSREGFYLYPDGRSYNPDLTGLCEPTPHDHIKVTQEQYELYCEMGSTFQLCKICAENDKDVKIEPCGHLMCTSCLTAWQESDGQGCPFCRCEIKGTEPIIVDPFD
Outline: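 Compound-treated Cbl-b was incubated 1.5 h with Src kinase (60 nM final; 30 nM for asterisked values, which also used 50 mM instead of 100 mM NaCl), 1 mM ATP and 5 mM MgCl2. Binding to fluorescent Ub-loaded UbcH5B (C85K mutant) was then read by TR-FRET after 1 h more.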

Cbl-b [6] = molecular target: T1, Cbl-b; assay: Cbl-b inhibition assay (Cbl-b activity assay, FRET, Biological Example 1; 100 mM NaCl, 60 nM Src kinase); format: biochemical; conditions: upper bound stated in text lists; read-out: IC50 values in the Cbl-b inhibition assay of Biological Example 1
Outline: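 Steps: Src kinase phosphorylates N-terminal biotinylated Avi-tagged Cbl-b; phosphorylated Cbl-b binds Bodipy-fluorescein ubiquitin-loaded UbcH5B; streptavidin-terbium on Cbl-b sits close to the fluorescein label, producing FRET. Inhibitors block UbcH5B-Ub binding.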

| Structure (SMILES) | fold induction at 0.3 µM (T-cell [1]) | fold induction at 1 µM (T-cell [1]) | fold induction at 1 µM (T-cell [2]) | fold induction at 1 µM (T-cell [3]) | fold induction at 0.3 µM (T-cell [4]) | fold induction at 1 µM (T-cell [4]) | pIC50 (Cbl-b [5]) | pIC50 (Cbl-b [6]) | fold induction at 4 µM (T-cell [1]) | fold induction at 8 µM (T-cell [2]) | fold induction at 8 µM (T-cell [3]) | fold induction at 4 µM (T-cell [4]) |
| --- | --- | --- | --- | --- | --- | --- | --- | --- | --- | --- | --- | --- |
| Cn1cnnc1CC1(c2cccc(N3Cc4c(cc(OC5CC5)cc4C(F)(F)F)C3=O)c2)COC1 [Compound 513, 6-cyclopropoxy-2-(3-{3-[(4-methyl-1,2,4-triazol-3-yl)methyl]oxetan-3-yl}-phenyl)-4-(trifluoromethyl)-3H-isoindol-1-one] | 1.01 to 1.3 | 1.01 to 1.3 | > 1 | 0.151 to 0.2 | 1.01 to 2.5 | 2.51 to 5 | > 7.00 | ≥ 7.00 |  |  |  |  |
| CN1CCN(c2cc3c(c(C(F)(F)F)c2)CN(c2cccc([C@@](C)(F)C(F)(F)c4nncn4C)c2)C3=O)CC1 [Compound 441, (R)-6-(4-Methylpiperazin-1-yl)-2-(3-(1,1,2-trifluoro-1-(4-methyl-4H-1,2,4-triazol-3-yl)propan-2-yl)phenyl)-4-(trifluoromethyl)isoindolin-1-one] | 1.01 to 1.3 | 1.01 to 1.3 | 0.601 to 0.8 | 0.051 to 0.1 | 1.01 to 2.5 | 1.01 to 2.5 | 6.52 to 7.00 | ≥ 6.52 | 1.01 to 1.3 | > 1 | 0.151 to 0.2 | 2.51 to 5 |
| Cn1cnnc1CC1(c2cccc(N3Cc4c(cc(CO)cc4C(F)(F)F)C3=O)c2)COC1 [Compound 437, 6-(hydroxymethyl)-2-(3-(3-((4-methyl-4H-1,2,4-triazol-3-yl)methyl)oxetan-3-yl)phenyl)-4-(trifluoromethyl)isoindolin-1-one] | 1.01 to 1.3 | 1.31 to 1.5 | 0.601 to 0.8 | 0.101 to 0.15 | 2.51 to 5 | 5 to 7.5 | > 7.00 | ≥ 7.00 | 1.51 to 1.75 | 0.601 to 0.8 | 0.051 to 0.1 | > 7.5 |
| Cc1conc1CC1(c2cccc(N3Cc4c(cc(CN5CCC6(CC6)C5)cc4C(F)(F)F)C3=O)c2)COC1 [Compound 535, 6-{5-azaspiro[2.4]heptan-5-ylmethyl}-2-(3-{3-[(4-methyl-1,2-oxazol-3-yl)methyl]oxetan-3-yl}phenyl)-4-(trifluoromethyl)-3H-isoindol-1-one] | 1.31 to 1.5 | 1.31 to 1.5 | > 1 | > 0.201 | > 7.5 | > 7.5 | > 7.00 | ≥ 7.00 |  |  |  |  |
| C[C@H](c1cc2c(c(C(F)(F)F)c1)CN(c1cccc(C3(Cc4nncn4C)COC3)c1)C2=O)N1CC(C)(F)C1 [Compound 543b, (R)-6-(1-(3-fluoro-3-methylazetidin-1-yl)ethyl)-2-(3-(3-((4-methyl-4H-1,2,4-triazol-3-yl)methyl)oxetan-3-yl)phenyl)-4-(trifluoromethyl)isoindolin-1-one] | 1.51 to 1.75 | 1.51 to 1.75 | > 1 | > 0.201 | 5 to 7.5 | > 7.5 | > 7.00 | ≥ 7.00 |  |  |  |  |
| CC(c1cc2c(c(C(F)(F)F)c1)CN(c1cccc([C@H]3C[C@H]3c3nncn3C)c1)C2=O)N1CC[C@H](F)C1 (stereo partly drawn) [Compound 466, 6-(1-((S)-3-fluoropyrrolidin-1-yl)ethyl)-2-(3-((1S,2R)-2-(4-methyl-4H-1,2,4-triazol-3-yl)cyclopropyl)phenyl)-4-(trifluoromethyl)isoindolin-1-one] | 1.31 to 1.5 | 1.51 to 1.75 | > 1 | > 0.201 | 2.51 to 5 | > 7.5 | > 7.00 | ≥ 7.00 | 1.51 to 1.75 | > 1 | > 0.201 | > 7.5 |
| C[C@H](Cc1nocc1C(F)(F)F)c1cccc(N2Cc3c(cc(C(=O)N4CC[C@H](O)C4)cc3C(F)(F)F)C2=O)c1 [Compound 484, 6-[(3S)-3-hydroxypyrrolidine-1-carbonyl]-4-(trifluoromethyl)-2-[3-[(2R)-1-[4-(trifluoromethyl)-1,2-oxazol-3-yl]propan-2-yl]phenyl]-2,3-dihydro-1H-isoindol-1-one] | 1.01 to 1.3 | 1.01 to 1.3 | 0.601 to 0.8 | 0.051 to 0.1 | 1.01 to 2.5 | 1.01 to 2.5 | 6.52 to 7.00 | ≥ 6.52 | 1.31 to 1.5 | > 1 | > 0.201 | 2.51 to 5 |
| Cn1cnnc1C(F)(F)[C@](C)(F)c1cccc(N2Cc3c(cc(CN4C[C@@H](F)[C@@H](F)C4)cc3C(F)(F)F)C2=O)c1 [Compound 461, 6-(((3R,7S)-3,4-difluoropyrrolidin-1-yl)methyl)-2-(3-((R)-1,1,2-trifluoro-1-(4-methyl-4H-1,2,4-triazol-3-yl)propan-2-yl)phenyl)-4-(trifluoromethyl)isoindolin-1-one] | 1.31 to 1.5 | 1.31 to 1.5 | > 1 | 0.151 to 0.2 | 2.51 to 5 | 5 to 7.5 | > 7.00 | ≥ 7.00 | 1.51 to 1.75 | > 1 | > 0.201 | > 7.5 |
| Cn1cnnc1[C@H](F)[C@@](C)(F)c1cccc(N2Cc3c(cc(C4CC4)cc3C(F)(F)F)C2=O)c1 (stereo in doubt) [Compound 483, 6-cyclopropyl-2-[3-[(1S,2S)-1,2-difluoro-1-(4-methyl-4H-1,2,4-triazol-3-yl)propan-2-yl]phenyl]-4-(trifluoromethyl)-2,3-dihydro-1H-isoindol-1-one] | 1.01 to 1.3 | 1.01 to 1.3 | 0.601 to 0.8 | 0.051 to 0.1 | < 1 | 1.01 to 2.5 | 6.52 to 7.00 | ≥ 6.52 | 1.01 to 1.3 | 0.801 to 1 | 0.051 to 0.1 | 1.01 to 2.5 |
| Cn1cnnc1CC1(c2cccc(N3Cc4c(cc(OC5CNC5)cc4C(F)(F)F)C3=O)c2)COC1 [Compound 514, 6-(azetidin-3-yloxy)-2-(3-{3-[(4-methyl-1,2,4-triazol-3-yl)methyl]oxetan-3-yl}phenyl)-4-(trifluoromethyl)-3H-isoindol-1-one] | 1.01 to 1.3 | 1.01 to 1.3 | 0.801 to 1 | 0.051 to 0.1 | 1.01 to 2.5 | 1.01 to 2.5 | > 7.00 | ≥ 7.00 |  |  |  |  |
| C[C@H](c1cc2c(c(C(F)(F)F)c1)CN(c1cccc(C3(Cc4nncn4C)COC3)c1)C2=O)N1CCC2(CC1)CC2 [Example 558b, (R)-6-(1-(6-azaspiro[2.5]octan-6-yl)ethyl)-2-(3-(3-((4-methyl-4H-1,2,4-triazol-3-yl)methyl)oxetan-3-yl)phenyl)-4-(trifluoromethyl)isoindolin-1-one] | 1.01 to 1.3 | 1.01 to 1.3 | > 1 | > 0.201 | > 7.5 | > 7.5 | > 7.00 | ≥ 7.00 |  |  |  |  |
| CC(O)c1cc2c(c(C(F)(F)F)c1)CN(c1cccc(C3(Cc4nncn4C)COC3)c1)C2=O (stereo not drawn) [Compound 540, 6-(l-hydroxyethyl)-2-(3-(3-((4-methyl-4H-1,2,4-triazol-3-yl)methyl)oxetan-3-yl)phenyl)-4-(trifluoromethyl)isoindolin-1-one] | 1.01 to 1.3 | 1.01 to 1.3 | > 1 | 0.151 to 0.2 | 1.01 to 2.5 | 2.51 to 5 | > 7.00 | ≥ 7.00 |  |  |  |  |
